Test results as given in US10441576B2, “Substituted 1,2-dihydro-3H pyrrolo[1,2-c]imidazol-3 one antibacterials” (priority 2015, dated 2019).
In brackets after ≈: the same amount, converted by molar mass.

Experiments:
Format in all cases: cell-based
wild-type E. coli A-1261 [1] = test: MIC against E. coli A-1261 in the absence or presence of alkaline phosphatase or esterase
Description: (§1) Minimal Inhibitory Concentrations (MICs; mg/L) were determined in cation-adjusted Mueller-Hinton Broth by a microdilution method following the description given in “Methods for Dilution Antimicrobial Susceptibility Tests for Bacteria that Grow Aerobically”, Approved standard, 7th ed., Clinical and Laboratory Standards Institute (CLSI) Document M7-A7, Wayne, Pa., USA (2006).
All Example compounds were tested against wild-type E. coli A-1261 in the absence of alkaline phosphatase or esterase, in the presence of an alkaline phosphatase and in the presence of an esterase. The corresponding antibacterial test results are given in Table 2 hereafter (MICs in mg/L).

E. coli ATCC25922 = test: Bacterial growth minimal inhibitory concentration (microdilution, cation-adjusted Mueller-Hinton Broth); conditions: Escherichia coli, quinolone-sensitive strain
Description: as §1
(§2) All Reference Example compounds were tested against several Gram-negative bacteria. […] The corresponding antibacterial test results are given in Table 1 hereafter (MICs in mg/L).

K. pneumoniae A-651 = test: as above; conditions: Klebsiella pneumoniae, A651; multiply resistant strain (in particular quinolone-resistant)
Description: as §1, §2

P. aeruginosa ATCC27853 = test: as above; conditions: Pseudomonas aeruginosa, quinolone-sensitive strain
Description: as §1, §2

wild-type E. coli A-1261 [2] = test: as above; conditions: Escherichia coli, quinolone-sensitive strain
Description: as §1, §2

[3] = Escherichia coli; alkaline phosphatase 2 i.U./mL; read-out: MIC for E. coli A-1261 In the presence of an alkaline phosphatase (2 i.U./mL)
[4] = Escherichia coli; esterase 10 i.U./mL; read-out: MIC for E. coli A-1261 In the presence of an esterase (10 i.U./mL)
[5] = Escherichia coli; read-out: MIC for E. coli A-1261 In the absence of alkaline phosphatase or esterase
[6] = Escherichia coli, read-out: MIC for E. coli A-1261 In the absence of alkaline phosphatase or esterase
[7] = Escherichia coli, read-out: MIC for E. coli A-1261 In the presence of an alkaline phosphatase (2 i.U./mL)
[8] = Escherichia coli, read-out: MIC for E. coli A-1261 In the presence of an esterase (10 i.U./mL)

In the case of `C[C@@](CCN1Cc2cc(C#CC#CC3(COC(=O)CN4CCOCC4)CC3)cn2C1=O)(C(=O)NO)S(C)(=O)=O` [Example 1, (R)-(1-((2-(4-(hydroxyamino)-3-methyl-3-(methylsulfonyl)-4-oxobutyl)-3-oxo-2,3-dihydro-1H-pyrrolo[1,2-c]imidazol-6-yl)buta-1,3-diyn-1-yl)cyclopropyl)methyl 2-morpholinoacetate], the MIC (wild-type E. coli A-1261 [1]; [3]) is reported as 1 µg/mL, the MIC (wild-type E. coli A-1261 [1]; [4]) is reported as 0.25 µg/mL and the MIC (wild-type E. coli A-1261 [1]; [5]) is reported as 2 µg/mL.

Work on `C[C@@](CCN1Cc2cc(C#CC#CC3(COC(=O)CCc4ccccc4OP(=O)(O)O)CC3)cn2C1=O)(C(=O)NO)S(C)(=O)=O` [Example 2, (R)-(1-((2-(4-(hydroxyamino)-3-methyl-3-(methylsulfonyl)-4-oxobutyl)-3-oxo-2,3-dihydro-1H-pyrrolo[1,2-c]imidazol-6-yl)buta-1,3-diyn-1-yl)cyclopropyl)methyl 3-(2-(phosphonooxy)phenyl)propanoate] yielded an MIC (wild-type E. coli A-1261 [1]; [6]) of 8 µg/mL, an MIC (wild-type E. coli A-1261 [1]; [7]) of 1 µg/mL and an MIC (wild-type E. coli A-1261 [1]; [8]) of 1 µg/mL.

Compound `C[C@@](CCN1Cc2cc(C#CC#CC3(CO)CC3)cn2C1=O)(C(=O)NOC(=O)CCc1ccccc1OP(=O)(O)O)S(C)(=O)=O` [Example 3, (R)-2-(3-((4-(6-((1-(hydroxymethyl)cyclopropyl)buta-1,3-diyn-1-yl)-3-oxo-1H-pyrrolo[1,2-c]imidazol-2(3H)-yl)-2-methyl-2-(methylsulfonyl)butanamido)oxy)-3-oxopropyl)phenyl dihydrogen phosphate] has an MIC (wild-type E. coli A-1261 [1]; [6]) of 8 µg/mL, an MIC (wild-type E. coli A-1261 [1]; [7]) of 0.5 µg/mL and an MIC (wild-type E. coli A-1261 [1]; [8]) of 8 µg/mL.

With `C[C@@](CCN1Cc2cc(C#CC#C[C@H]3C[C@@H]3COP(=O)(O)O)cn2C1=O)(C(=O)NO)S(C)(=O)=O` [Example 4, ((1S,2S)-2-((2-((R)-4-(hydroxyamino)-3-methyl-3-(methylsulfonyl)-4-oxobutyl)-3-oxo-2,3-dihydro-1H-pyrrolo[1,2-c]imidazol-6-yl)buta-1,3-diyn-1-yl)cyclopropyl)methyl dihydrogen phosphate] the MIC (wild-type E. coli A-1261 [1]; [3]) was 0.25 µg/mL, the MIC (wild-type E. coli A-1261 [1]; [4]) was greater than 8 µg/mL and the MIC (wild-type E. coli A-1261 [1]; [5]) was greater than 8 µg/mL.

`C[C@@](CCN1Cc2cc(C#CC#C[C@H]3C[C@@H]3COC(=O)CCc3ccccc3OP(=O)(O)O)cn2C1=O)(C(=O)NO)S(C)(=O)=O` [Example 5, ((1S,2S)-2-((2-((R)-4-(hydroxyamino)-3-methyl-3-(methylsulfonyl)-4-oxobutyl)-3-oxo-2,3-dihydro-1H-pyrrolo[1,2-c]imidazol-6-yl)buta-1,3-diyn-1-yl)cyclopropyl)methyl 3-(2-(phosphonooxy)phenyl)propanoate] showed an MIC (wild-type E. coli A-1261 [1]; [6]) of 4 µg/mL, an MIC (wild-type E. coli A-1261 [1]; [7]) of 0.25 µg/mL and an MIC (wild-type E. coli A-1261 [1]; [8]) of 0.25 µg/mL.

Compound `C[C@@](CCN1Cc2cc(C#CC#C[C@H]3C[C@]3(F)COP(=O)(O)O)cn2C1=O)(C(=O)NO)S(C)(=O)=O` [Example 6, ((1R,2R)-1-fluoro-2-((2-((R)-4-(hydroxyamino)-3-methyl-3-(methylsulfonyl)-4-oxobutyl)-3-oxo-2,3-dihydro-1H-pyrrolo[1,2-c]imidazol-6-yl)buta-1,3-diyn-1-yl)cyclopropyl)methyl dihydrogen phosphate] has an MIC (wild-type E. coli A-1261 [1]; [3]) of 0.5 µg/mL, an MIC (wild-type E. coli A-1261 [1]; [4]) greater than 8 µg/mL and an MIC (wild-type E. coli A-1261 [1]; [5]) greater than 8 µg/mL.

Work on `C[C@@](CCN1Cc2cc(C#CC#CC3(CO)CC3)cn2C1=O)(C(=O)NOP(=O)(O)O)S(C)(=O)=O.N` [Example 7, mono-ammonium (R)-((4-(6-((1-(hydroxymethyl)cyclopropyl)buta-1,3-diyn-1-yl)-3-oxo-1H-pyrrolo[1,2-c]imidazol-2(3H)-yl)-2-methyl-2-(methylsulfonyl)butanamido)oxy)phosphonate] yielded an MIC (wild-type E. coli A-1261 [1]; [3]) of 1 µg/mL, an MIC (wild-type E. coli A-1261 [1]; [4]) of 4 µg/mL and an MIC (wild-type E. coli A-1261 [1]; [5]) of 4 µg/mL.

`C[C@@](CCN1Cc2cc(C#CC#CC3(CO)CC3)cn2C1=O)(C(=O)NO)S(C)(=O)=O` [RE1, (R)—N-hydroxy-4-(6-((1-(hydroxymethyl)cyclopropyl)buta-1,3-diyn-1-yl)-3-oxo-1H-pyrrolo[1,2-c]imidazol-2(3H)-yl)-2-methyl-2-(methylsulfonyl)butanamide] showed an MIC (E. coli ATCC25922) of 0.5 µg/mL (≈ 1.15 µM), an MIC (K. pneumoniae A-651) of 1 µg/mL (≈ 2.31 µM) and an MIC (P. aeruginosa ATCC27853) of 1 µg/mL (≈ 2.31 µM). For the same compound, the MIC (wild-type E. coli A-1261 [2]) was 0.25 µg/mL (≈ 0.577 µM).

Work on `C[C@@](CCN1Cc2cc(C#CC#C[C@H]3C[C@@H]3CO)cn2C1=O)(C(=O)NO)S(C)(=O)=O` [RE2, (R)—N-hydroxy-4-(6-(((1S,2S)-2-(hydroxymethyl)cyclopropyl)buta-1,3-diyn-1-yl)-3-oxo-1H-pyrrolo[1,2-c]imidazol-2(3H)-yl)-2-methyl-2-(methylsulfonyl)butanamide] yielded an MIC (E. coli ATCC25922) of 0.25 µg/mL (≈ 0.577 µM), an MIC (K. pneumoniae A-651) of 0.25 µg/mL (≈ 0.577 µM) and an MIC (P. aeruginosa ATCC27853) of 0.25 µg/mL (≈ 0.577 µM). For the same compound, the MIC (wild-type E. coli A-1261 [2]) was 0.125 µg/mL (≈ 0.288 µM).

With `C[C@@](CCN1Cc2cc(C#CC#C[C@H]3C[C@]3(F)CO)cn2C1=O)(C(=O)NO)S(C)(=O)=O` [RE3, (R)-4-(6-(((1R,2R)-2-fluoro-2-(hydroxymethyl)cyclopropyl)buta-1,3-diyn-1-yl)-3-oxo-1H-pyrrolo[1,2-c]imidazol-2(3H)-yl)-N-hydroxy-2-methyl-2-(methylsulfonyl)butanamide] the MIC (E. coli ATCC25922) was 0.25 µg/mL (≈ 0.554 µM), the MIC (K. pneumoniae A-651) was 0.5 µg/mL (≈ 1.11 µM) and the MIC (P. aeruginosa ATCC27853) was 0.5 µg/mL (≈ 1.11 µM). For the same compound, the MIC (wild-type E. coli A-1261 [2]) was 0.25 µg/mL (≈ 0.554 µM).

For “(R)-(1-((2-(4-(hydroxyamino)-3-methyl-3-(methylsulfonyl)-4-oxobutyl)-3-oxo-2,3-dihydro-1H-pyrrolo[1,2-c]imidazol-6-yl)buta-1,3-diyn-1-yl)cyclopropyl)methyl hydrogen sulfate [Example 8]”, the “MIC for E. coli A-1261 In the absence of alkaline phosphatase or esterase” value (wild-type E. coli A-1261 [1]; absence of alkaline phosphatase or esterase) was 2 µg/mL, the “MIC for E. coli A-1261 In the presence of an alkaline phosphatase (2 i.U./mL)” value (wild-type E. coli A-1261 [1]; alkaline phosphatase 2 i.U./mL) was 2 µg/mL and the “MIC for E. coli A-1261 In the presence of an esterase (10 i.U./mL)” value (wild-type E. coli A-1261 [1]; esterase 10 i.U./mL) was 2 µg/mL.
